Results published in paper PMC3310894 (Bioorganic & medicinal chemistry, 2012).

Tests used:
[1] = system: COLO-205 tumor xenografts; assay: COLO-205 human metastatic colon mouse xenograft; format: in vivo; settings: athymic mice, 11a 35 mg/kg, 8 10 mg/kg, three times weekly, IP
[2] = mice; 35 mg/kg of 11a, 10 mg/kg of 8
VEGFR-2 = VEGFR-2 (Homo sapiens, UniProt P35968); settings: for VEGFR-2 inhibition, fold less active than the standard 23: relative to standard 23
VEGFR-1 = VEGFR-1 (Homo sapiens, UniProt P17948); settings: for VEGFR-1 inhibition, fold less active than the standard 21: relative to standard 21
VEGFR-1, sequence (P17948 27-1338): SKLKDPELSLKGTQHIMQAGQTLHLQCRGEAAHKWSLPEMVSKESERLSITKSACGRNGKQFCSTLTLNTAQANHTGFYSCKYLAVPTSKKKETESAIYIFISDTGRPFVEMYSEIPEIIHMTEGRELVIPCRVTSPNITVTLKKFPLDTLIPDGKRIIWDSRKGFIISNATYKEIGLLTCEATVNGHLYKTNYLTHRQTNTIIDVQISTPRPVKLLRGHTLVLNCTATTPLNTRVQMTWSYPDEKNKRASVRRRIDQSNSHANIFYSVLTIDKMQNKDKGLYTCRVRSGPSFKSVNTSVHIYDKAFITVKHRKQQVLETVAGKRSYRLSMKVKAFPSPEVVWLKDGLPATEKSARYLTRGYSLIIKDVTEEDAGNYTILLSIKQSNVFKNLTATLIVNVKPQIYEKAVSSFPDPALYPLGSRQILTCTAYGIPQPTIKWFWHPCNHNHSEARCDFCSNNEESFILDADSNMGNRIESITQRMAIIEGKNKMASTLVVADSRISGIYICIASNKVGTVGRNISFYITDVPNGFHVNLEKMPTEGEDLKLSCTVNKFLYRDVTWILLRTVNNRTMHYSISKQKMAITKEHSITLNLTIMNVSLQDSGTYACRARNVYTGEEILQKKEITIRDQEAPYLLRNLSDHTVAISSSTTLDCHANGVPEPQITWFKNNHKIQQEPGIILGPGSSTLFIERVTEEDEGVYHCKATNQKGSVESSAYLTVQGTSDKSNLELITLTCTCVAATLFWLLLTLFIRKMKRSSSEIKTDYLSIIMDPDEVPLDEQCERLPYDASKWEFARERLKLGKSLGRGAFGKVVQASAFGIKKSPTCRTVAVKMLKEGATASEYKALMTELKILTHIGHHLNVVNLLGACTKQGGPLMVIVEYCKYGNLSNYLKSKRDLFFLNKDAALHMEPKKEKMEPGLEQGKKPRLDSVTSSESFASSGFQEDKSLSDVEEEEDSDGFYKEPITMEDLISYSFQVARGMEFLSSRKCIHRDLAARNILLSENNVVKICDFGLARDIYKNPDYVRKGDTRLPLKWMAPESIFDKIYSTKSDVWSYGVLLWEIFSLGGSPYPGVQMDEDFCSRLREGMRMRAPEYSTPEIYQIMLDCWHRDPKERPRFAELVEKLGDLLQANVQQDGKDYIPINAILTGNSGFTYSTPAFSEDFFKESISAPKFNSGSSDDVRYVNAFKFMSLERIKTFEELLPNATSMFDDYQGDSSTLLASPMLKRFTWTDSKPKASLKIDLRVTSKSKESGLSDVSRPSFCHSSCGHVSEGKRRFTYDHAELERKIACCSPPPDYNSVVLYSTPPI

EGFR = EGFR (Homo sapiens, UniProt P00533); settings: for EGFR inhibition, fold less potent than the standard 20: relative to standard 20 (PD153035)
EGFR, sequence (P00533 25-1210): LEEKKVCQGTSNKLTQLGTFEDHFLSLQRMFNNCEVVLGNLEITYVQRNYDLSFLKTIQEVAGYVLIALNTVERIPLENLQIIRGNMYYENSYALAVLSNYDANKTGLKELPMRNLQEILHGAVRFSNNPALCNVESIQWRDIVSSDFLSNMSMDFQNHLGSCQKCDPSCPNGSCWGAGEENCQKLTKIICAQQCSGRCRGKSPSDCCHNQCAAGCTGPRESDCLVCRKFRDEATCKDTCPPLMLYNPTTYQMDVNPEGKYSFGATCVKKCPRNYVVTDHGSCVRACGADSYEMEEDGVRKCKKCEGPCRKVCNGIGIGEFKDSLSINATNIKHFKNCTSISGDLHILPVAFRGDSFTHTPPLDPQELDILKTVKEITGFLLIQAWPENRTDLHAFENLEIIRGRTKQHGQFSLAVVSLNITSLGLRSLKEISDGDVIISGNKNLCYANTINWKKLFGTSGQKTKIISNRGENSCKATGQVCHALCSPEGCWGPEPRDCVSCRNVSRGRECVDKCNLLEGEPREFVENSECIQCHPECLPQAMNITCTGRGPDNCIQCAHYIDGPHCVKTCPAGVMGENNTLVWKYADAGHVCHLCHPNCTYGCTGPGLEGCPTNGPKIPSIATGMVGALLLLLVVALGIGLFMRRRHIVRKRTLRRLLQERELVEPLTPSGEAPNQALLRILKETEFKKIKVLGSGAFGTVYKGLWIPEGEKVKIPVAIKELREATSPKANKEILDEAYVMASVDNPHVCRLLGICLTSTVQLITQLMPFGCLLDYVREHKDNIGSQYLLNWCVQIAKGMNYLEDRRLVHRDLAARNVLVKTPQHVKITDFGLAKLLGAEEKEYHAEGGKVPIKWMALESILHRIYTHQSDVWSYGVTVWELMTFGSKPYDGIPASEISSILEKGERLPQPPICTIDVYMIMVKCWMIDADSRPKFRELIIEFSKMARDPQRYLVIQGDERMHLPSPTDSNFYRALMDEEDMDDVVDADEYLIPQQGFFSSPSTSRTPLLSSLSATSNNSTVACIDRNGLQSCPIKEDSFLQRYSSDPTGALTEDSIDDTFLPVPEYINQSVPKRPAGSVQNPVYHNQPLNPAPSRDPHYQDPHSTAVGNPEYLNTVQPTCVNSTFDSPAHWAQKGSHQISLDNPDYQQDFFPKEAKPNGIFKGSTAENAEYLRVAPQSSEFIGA

PDGFR-β = PDGFR-β (Homo sapiens, UniProt P09619); settings: for PDGFRβ inhibition, fold less active than the standard 22: relative to standard 22 (AG1295)
PDGFR-β, sequence (P09619 33-1106): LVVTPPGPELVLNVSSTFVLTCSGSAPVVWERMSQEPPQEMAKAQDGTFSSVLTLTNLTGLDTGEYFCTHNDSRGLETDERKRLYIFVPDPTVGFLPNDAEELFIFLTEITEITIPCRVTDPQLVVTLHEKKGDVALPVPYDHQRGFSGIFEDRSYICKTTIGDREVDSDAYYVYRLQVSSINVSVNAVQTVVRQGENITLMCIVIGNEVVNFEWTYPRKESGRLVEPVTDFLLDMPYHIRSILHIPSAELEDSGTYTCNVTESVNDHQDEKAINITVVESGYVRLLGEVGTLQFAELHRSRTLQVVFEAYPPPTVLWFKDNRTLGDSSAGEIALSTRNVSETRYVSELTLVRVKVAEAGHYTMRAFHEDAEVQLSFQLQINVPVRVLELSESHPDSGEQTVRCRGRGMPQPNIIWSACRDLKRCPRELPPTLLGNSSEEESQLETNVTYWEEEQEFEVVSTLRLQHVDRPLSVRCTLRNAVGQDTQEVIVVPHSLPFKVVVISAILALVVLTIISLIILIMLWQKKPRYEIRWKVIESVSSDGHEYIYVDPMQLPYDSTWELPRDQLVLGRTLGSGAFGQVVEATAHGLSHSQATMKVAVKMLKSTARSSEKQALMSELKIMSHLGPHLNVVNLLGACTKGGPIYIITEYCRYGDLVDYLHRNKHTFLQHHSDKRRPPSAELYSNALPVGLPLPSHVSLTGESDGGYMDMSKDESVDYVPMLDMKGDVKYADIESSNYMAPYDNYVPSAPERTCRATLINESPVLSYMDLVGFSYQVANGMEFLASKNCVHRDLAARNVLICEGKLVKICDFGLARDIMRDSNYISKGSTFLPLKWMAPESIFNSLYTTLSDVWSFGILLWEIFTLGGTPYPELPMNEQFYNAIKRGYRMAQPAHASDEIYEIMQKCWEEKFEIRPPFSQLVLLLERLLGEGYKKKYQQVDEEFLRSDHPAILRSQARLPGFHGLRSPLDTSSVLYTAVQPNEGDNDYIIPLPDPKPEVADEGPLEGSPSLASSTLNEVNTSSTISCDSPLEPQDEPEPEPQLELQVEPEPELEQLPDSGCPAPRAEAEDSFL

VEGFR-2, sequence (P35968 20-1356): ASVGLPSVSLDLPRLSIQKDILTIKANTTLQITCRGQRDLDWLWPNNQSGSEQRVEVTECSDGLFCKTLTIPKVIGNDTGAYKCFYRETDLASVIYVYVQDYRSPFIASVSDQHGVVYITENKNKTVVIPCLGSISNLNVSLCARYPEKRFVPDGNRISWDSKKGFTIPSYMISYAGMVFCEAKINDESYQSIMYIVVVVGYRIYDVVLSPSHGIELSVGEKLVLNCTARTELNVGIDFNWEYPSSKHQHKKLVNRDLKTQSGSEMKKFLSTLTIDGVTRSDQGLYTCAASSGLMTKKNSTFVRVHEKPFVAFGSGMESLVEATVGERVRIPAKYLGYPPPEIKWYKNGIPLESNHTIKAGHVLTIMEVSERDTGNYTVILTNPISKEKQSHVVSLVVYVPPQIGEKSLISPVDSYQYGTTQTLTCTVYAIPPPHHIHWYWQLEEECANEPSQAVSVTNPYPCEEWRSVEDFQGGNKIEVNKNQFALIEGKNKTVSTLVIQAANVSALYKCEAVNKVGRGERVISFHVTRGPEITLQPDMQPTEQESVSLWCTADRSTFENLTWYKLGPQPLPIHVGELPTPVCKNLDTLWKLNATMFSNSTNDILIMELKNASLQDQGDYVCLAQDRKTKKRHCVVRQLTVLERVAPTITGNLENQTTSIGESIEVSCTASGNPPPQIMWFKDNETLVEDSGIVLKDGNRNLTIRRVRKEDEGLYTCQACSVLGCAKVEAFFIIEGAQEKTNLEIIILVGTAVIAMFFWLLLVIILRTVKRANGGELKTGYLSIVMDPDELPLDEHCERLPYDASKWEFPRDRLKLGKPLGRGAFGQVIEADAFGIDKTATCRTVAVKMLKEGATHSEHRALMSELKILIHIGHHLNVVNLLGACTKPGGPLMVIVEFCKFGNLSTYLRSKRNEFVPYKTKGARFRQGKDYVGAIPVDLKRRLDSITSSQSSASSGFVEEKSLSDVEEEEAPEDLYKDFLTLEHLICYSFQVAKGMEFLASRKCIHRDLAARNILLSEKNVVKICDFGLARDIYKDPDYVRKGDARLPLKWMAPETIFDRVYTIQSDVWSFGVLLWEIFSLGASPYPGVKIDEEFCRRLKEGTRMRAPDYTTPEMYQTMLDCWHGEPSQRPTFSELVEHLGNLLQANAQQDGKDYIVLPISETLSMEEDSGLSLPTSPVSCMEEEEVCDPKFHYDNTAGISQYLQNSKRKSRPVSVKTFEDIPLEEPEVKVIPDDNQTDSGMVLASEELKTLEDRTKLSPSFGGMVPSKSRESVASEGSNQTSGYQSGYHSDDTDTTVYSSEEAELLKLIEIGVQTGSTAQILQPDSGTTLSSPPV

| Compound | VEGFR-2 inhibition, fold less active than the standard 23 (VEGFR-2) [fold] | VEGFR-1 inhibition, fold less active than the standard 21 (VEGFR-1) | EGFR inhibition, result in words (EGFR) | also measured |
| --- | --- | --- | --- | --- |
| Cc1[nH]c(/C=C2\C(=O)Nc3ccccc32)c(C)c1CCC(=O)O [Compound 8, TSU-68, reference compound] |  |  |  | primary tumor growth rate compared to the control [1]: significant decreases; primary tumor vascularity compared to control animals [1]: significant decrease; toxicity in six week toxicity determination study [2]: no overt toxicity |
| Nc1nc(Nc2cccc(Br)c2)c2ccn(Cc3ccccc3)c2n1 [Compound 9a, 7-benzyl-N^4-(3-bromophenyl)-7H-pyrrolo[2,3-d]pyrimidine-2,4-diamine] | 2 | 5.6 fold |  | EGFR inhibition, fold less potent than the standard 20 (EGFR): about 800 fold |
| Nc1nc(Nc2cccc(Br)c2)c2ccn(Cc3ccccc3Cl)c2n1 [Compound 11a, N^4-(3-bromophenyl)-7-(2-chlorobenzyl)-7H-pyrrolo[2,3-d]pyrimidine-2,4-diamine] | 1.6 | 7 fold |  | PDGFRβ inhibition, result in words (PDGFR-β): single digit micromolar concentrations; PDGFRβ inhibition, fold more active than parent regioisomer 11 (PDGFR-β; relative to 6-substituted regioisomer 11): > 33 fold; numbers of COLO-205 metastases to the liver [1]: significantly reduced numbers; primary tumor growth rate compared to the control [1]: significant decreases; primary tumor vascularity compared to control animals [1]: significant decrease; toxicity in six week toxicity determination study [2]: no overt toxicity |
| COc1ccc(OC)c(Cn2ccc3c(Nc4cccc(Br)c4)nc(N)nc32)c1 [Compound 13a, N^4-(3-bromophenyl)-7-(2,5-dimethoxybenzyl)-7H-pyrrolo[2,3-d]pyrimidine-2,4-diamine] |  |  | 2-digit micromolar inhibition | VEGFR-2 inhibition, result in words (VEGFR-2): inactive even at 200 μM; EGFR inhibition, fold less potent than the standard 20 (EGFR): 346 fold |
| Nc1nc(Nc2cccc(Br)c2)c2ccn(Cc3ccc(Cl)cc3Cl)c2n1 [Compound 14a, N^4-(3-bromophenyl)-7-(2,4-dichlorobenzyl)-7H-pyrrolo[2,3-d]pyrimidine-2,4-diamine] |  |  | inactivity | VEGFR-2 inhibition, result in words (VEGFR-2): inactive |
| Nc1nc(Nc2cccc(Br)c2)c2ccn(Cc3ccc(Cl)c(Cl)c3)c2n1 [Compound 15a, N^4-(3-bromophenyl)-7-(3,4-dichlorobenzyl)-7H-pyrrolo[2,3-d]pyrimidine-2,4-diamine] | 6 | 7 fold | inactivity |  |
| Nc1nc(Nc2cccc(Br)c2)c2ccn(Cc3cccc4ccccc34)c2n1 [Compound 16a, N^4-(3-bromophenyl)-7-(1-naphthylmethyl)-7H-pyrrolo[2,3-d]pyrimidine-2,4-diamine] | 1.4 | 8.4 fold | abolished | VEGFR-2 inhibition, fold less active than parent regioisomer 16 (VEGFR-2; 16a versus 16): 3 fold; PDGFRβ inhibition, fold less active than the standard 22 (PDGFR-β): 20 fold |
| Nc1nc(Nc2cccc(Br)c2)c2ccn(Cc3ccc4ccccc4c3)c2n1 [Compound 17a, N^4-(3-bromophenyl)-7-(2-naphthylmethyl)-7H-pyrrolo[2,3-d]pyrimidine-2,4-diamine] | 2 | 2.8 fold | abolished | PDGFRβ inhibition, fold less active than the standard 22 (PDGFR-β): 34 fold |
| Nc1nc(Nc2cccc(Br)c2)c2ccn(Cc3ccc(-c4ccccc4)cc3)c2n1 [Compound 18a, 7-Biphenyl-4-ylmethyl-N^4-(3-bromo-phenyl)-7H-pyrrolo[2,3-d]pyrimidine-2,4-diamine] |  |  | abolished | VEGFR-1 inhibition, result in words (VEGFR-1): inactive at a concentration of 200 μM |
| COc1cc(Cn2ccc3c(Nc4cccc(Br)c4)nc(N)nc32)cc(OC)c1OC [Compound 19a, N^4-(3-Bromo-phenyl)-7-(3,4,5-trimethoxy-benzyl)-7H-pyrrolo[2,3-d]pyrimidine-2,4-diamine] | 2 | about 8.8 fold | inactivity | PDGFRβ inhibition, result in words (PDGFR-β): single digit micromolar concentrations |
